The test system of the assay is P388 leukemia ip, CD2F1 mice, survival T/C. As to the kind of experiment: NCI In Vivo Anticancer Drug Screen. Data for tumor model P388 Leukemia (intraperitoneal) in CD2F1 (CDF1) mice. The following applies: endpoint: median survival time, higher = longer survival. The method, boiled down:
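Mice carrying the transplanted tumor received test compound or vehicle. Survival was recorded in each group, and the value is the treated-group measurement divided by that of the vehicle-treated control group.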

The mark [1] stands for this setting: dose: 100.0 mg/kg/injection, schedule: Q04DX003 (ip), vehicle: Klucel (hydroxypropylcellulose) (HPC).
Setting [2] is: dose: 200.0 mg/kg/injection, schedule: Q04DX003 (ip), vehicle: Klucel (hydroxypropylcellulose) (HPC).
[3] abbreviates: dose: 50.0 mg/kg/injection, schedule: Q01DX005 (ip), vehicle: Klucel (hydroxypropylcellulose) (HPC).
[4] abbreviates: dose: 100.0 mg/kg/injection, schedule: Q01DX005 (ip), vehicle: Klucel (hydroxypropylcellulose) (HPC).
The mark [5] stands for this setting: dose: 100.0 mg/kg/injection, schedule: Q04DX003 (ip), vehicle: saline with Tween-80.
Where [6] appears, read: dose: 200.0 mg/kg/injection, schedule: Q04DX003 (ip), vehicle: saline with Tween-80.
Setting [7] is: dose: 60.0 mg/kg/injection, schedule: Q01DX005 (ip), vehicle: saline with Tween-80.
Where [8] appears, read: dose: 120.0 mg/kg/injection, schedule: Q01DX005 (ip), vehicle: saline with Tween-80.
[9] abbreviates: dose: 200.0 mg/kg/injection, schedule: Q01DX005 (ip), vehicle: Klucel (hydroxypropylcellulose) (HPC).
Where [10] appears, read: dose: 50.0 mg/kg/injection, schedule: Q01DX009 (ip), vehicle: saline with Tween-80.
The mark [11] stands for this setting: dose: 100.0 mg/kg/injection, schedule: Q01DX009 (ip), vehicle: saline with Tween-80.
Setting [12] is: dose: 50.0 mg/kg/injection, schedule: Q01DX005 (ip), vehicle: saline with Tween-80.
Setting [13] is: dose: 100.0 mg/kg/injection, schedule: Q01DX005 (ip), vehicle: saline with Tween-80.
[14] abbreviates: dose: 200.0 mg/kg/injection, schedule: Q01DX005 (ip), vehicle: saline with Tween-80.

Molecules are shown by their SMILES. Several values for one entry are separate records, joined by “and”; a condition that tells them apart may be missing. Equal entries are not always repeated. Inconclusive results and toxic doses are left out. Peptide text beside a SMILES is read from it.

`O=C1CC2(Cl)CN3c4ccccc4C(=O)CC3(Cl)CN2c2ccccc21` (stereo not given): the T/C by setting is: (dose: 12.5 mg/kg/injection, schedule: Q04DX003 (ip), vehicle: alcohol) 100 % of control and 106 % of control; (dose: 25.0 mg/kg/injection, schedule: Q04DX003 (ip), vehicle: alcohol) 99 % of control and 106 % of control; (dose: 50.0 mg/kg/injection, schedule: Q04DX003 (ip), vehicle: alcohol) 100 % of control and 108 % of control.

Turning to `NC(=O)Cc1nn[nH]n1`, the T/C by setting is: under setting [1], 106 % of control; under setting [2], 103 % of control; (dose: 400.0 mg/kg/injection, schedule: Q04DX003 (ip), vehicle: Klucel (hydroxypropylcellulose) (HPC)) 107 % of control.

`Nc1ccccc1SSc1ccccc1C(=O)O`: the T/C runs as follows: under setting [3], 112 % of control; under setting [4], 112 % of control.

Consider `Clc1c2c(c(Cl)c3c1=Nc1ccc4ccccc4c1S3)=Nc1ccc3ccccc3c1S2`, for which the T/C is 107 % of control under setting [5]; 113 % of control under setting [6]; 115 % of control (dose: 400.0 mg/kg/injection, schedule: Q04DX003 (ip), vehicle: saline with Tween-80).

Consider `COc1cccc(C(Nc2nncs2)Nc2nncs2)c1OC`, for which the T/C under setting [7] is 87 % of control; the T/C under setting [8] was 91 % of control; the T/C (dose: 240.0 mg/kg/injection, schedule: Q01DX005 (ip), vehicle: saline with Tween-80) is 100 % of control.

`FC(F)(F)c1cc(NC(=S)SCc2ccc(Cl)cc2)ccc1Cl`: the T/C was 103 % of control (dose: 50.0 mg/kg/injection, schedule: Q01DX009 (ip), vehicle: suspension in saline); 90 % of control (dose: 100.0 mg/kg/injection, schedule: Q01DX009 (ip), vehicle: suspension in saline); 93 % of control (dose: 200.0 mg/kg/injection, schedule: Q01DX009 (ip), vehicle: suspension in saline).

Turning to `CC(O)(CO)CC(C)(O)CO` (stereo not given), the T/C (dose: 50.0 mg/kg/injection, schedule: Q01DX005 (ip), vehicle: saline) is 97 % of control; the T/C (dose: 100.0 mg/kg/injection, schedule: Q01DX005 (ip), vehicle: saline) was 105 % of control; the T/C (dose: 200.0 mg/kg/injection, schedule: Q01DX005 (ip), vehicle: saline) is 103 % of control.

Take `C/C(=C/c1cc2c(cc1Br)OCO2)[N+](=O)[O-]`: the T/C reads like this: under setting [5], 108 % of control; under setting [6], 118 % of control.

On to `Cc1ccc2nc3ccccc3c(SCCCCCCSc3c4ccccc4nc4ccc(C)cc34)c2c1`, for which the T/C (dose: 60.0 mg/kg/injection, schedule: Q01DX005 (ip), vehicle: Klucel (hydroxypropylcellulose) (HPC)) was 89 % of control; the T/C under setting [7] was 107 % of control; the T/C (dose: 120.0 mg/kg/injection, schedule: Q01DX005 (ip), vehicle: Klucel (hydroxypropylcellulose) (HPC)) was 87 % of control; the T/C under setting [8] is 90 % of control; the T/C (dose: 240.0 mg/kg/injection, schedule: Q01DX005 (ip), vehicle: Klucel (hydroxypropylcellulose) (HPC)) is 87 % of control.

Consider `C/C(=N\NC(=S)N1CCCC1)c1ccc[nH]1`, for which the T/C under setting [3] is 102 % of control, the T/C under setting [4] is 114 % of control and the T/C under setting [9] is 89 % of control.

On to `CC(N)C(=O)NCC(=O)NC(CO)C(=O)NC(CCC(=O)O)C(=O)O` (stereo not given) (H-AGSE-OH; configuration not given here), for which the T/C by setting is: (dose: 9.0 mg/kg/injection, schedule: Q01DX005 (ip), vehicle: water) 96 % of control; (dose: 18.0 mg/kg/injection, schedule: Q01DX005 (ip), vehicle: water) 102 % of control; (dose: 36.0 mg/kg/injection, schedule: Q01DX005 (ip), vehicle: water) 100 % of control; (dose: 72.0 mg/kg/injection, schedule: Q01DX005 (ip), vehicle: water) 110 % of control; (dose: 144.0 mg/kg/injection, schedule: Q01DX005 (ip), vehicle: water) 103 % of control.

With `COC(=O)Nc1nc2ccc(C(=O)c3ccc(F)cc3)cc2[nH]1`, the T/C (dose: 12.5 mg/kg/injection, schedule: Q01DX009 (ip), vehicle: saline with Tween-80) is 120 % of control; the T/C under setting [10] was 180 % of control; the T/C under setting [11] is 217 % of control and 236 % of control.

For the compound `CCOP(=O)(CC(=O)NC(C(N)=O)C(C)C)OCC` (stereo not given), the T/C reads like this: under setting [12], 101 % of control; under setting [13], 104 % of control; under setting [14], 105 % of control.

Consider `O=c1nc2sccn2c2ncccc12`, for which the T/C (dose: 3.75 mg/kg/injection, schedule: Q01DX005 (ip), vehicle: saline with Tween-80) is 96 % of control; the T/C (dose: 7.5 mg/kg/injection, schedule: Q01DX005 (ip), vehicle: saline with Tween-80) was 94 % of control; the T/C (dose: 15.0 mg/kg/injection, schedule: Q01DX005 (ip), vehicle: saline with Tween-80) is 88 % of control.

With `CC(C)n1cccc(C#N)c1=S`, the T/C is 101 % of control under setting [3], 98 % of control under setting [4] and 97 % of control under setting [9].

Consider `CCN(CC)CCOC(=O)C(OCCC(C)C)(c1ccccc1)c1ccccc1`, for which the T/C under setting [3] is 113 % of control and the T/C under setting [4] is 113 % of control.

As for `CS(=O)(=O)NCCSSCCNS(C)(=O)=O`, the T/C reads like this: under setting [12], 106 % of control; under setting [13], 103 % of control; under setting [14], 112 % of control.

`CN1CC(CO)=CC2c3cccc4[nH]cc(c34)CC21` (stereo not given): the T/C reads like this: (dose: 25.0 mg/kg/injection, schedule: Q01DX009 (ip), vehicle: saline with Tween-80) 111 % of control; under setting [10], 104 % of control; under setting [11], 104 % of control.

As to `O=C(CC1(Cl)C(F)(F)C(F)(F)C1(F)F)c1ccccc1`, the T/C (dose: 6.25 mg/kg/injection, schedule: Q04DX003 (ip), vehicle: saline) was 100 % of control; the T/C (dose: 12.5 mg/kg/injection, schedule: Q04DX003 (ip), vehicle: saline) was 100 % of control; the T/C (dose: 25.0 mg/kg/injection, schedule: Q04DX003 (ip), vehicle: saline) was 100 % of control.

As for `O=c1oc2c(c(N(c3ccccc3)c3ccccc3)c1Cl)Cc1ccccc1CC2`, the T/C is, setting by setting: (dose: 50.0 mg/kg/injection, schedule: Q04DX003 (ip), vehicle: Klucel (hydroxypropylcellulose) (HPC)) 95 % of control; under setting [1], 92 % of control; under setting [2], 91 % of control.

As for `COC(=O)[C@@]12OC[C@]34C([C@@H](O)C1O)[C@@]1(C)CC(=O)C(O)=C(C)C1C[C@H]3OC(=O)[C@H](OC(=O)c1cccc(Cl)c1)[C@H]42` (stereo not given in full), the T/C by setting is: (dose: 0.25 mg/kg/injection, schedule: Q01DX005 (ip), vehicle: DMSO) 119 % of control; (dose: 0.5 mg/kg/injection, schedule: Q01DX005 (ip), vehicle: DMSO) 112 % of control; (dose: 1.0 mg/kg/injection, schedule: Q01DX005 (ip), vehicle: DMSO) 121 % of control and 93 % of control; (dose: 2.0 mg/kg/injection, schedule: Q01DX005 (ip), vehicle: DMSO) 109 % of control and 110 % of control; (dose: 4.0 mg/kg/injection, schedule: Q01DX005 (ip), vehicle: DMSO) 105 % of control; (dose: 8.0 mg/kg/injection, schedule: Q01DX005 (ip), vehicle: DMSO) 101 % of control and 104 % of control. Also, the T/C is 111 % of control (dose: 16.0 mg/kg/injection, schedule: Q01DX005 (ip), vehicle: DMSO) and 108 % of control (dose: 32.0 mg/kg/injection, schedule: Q01DX005 (ip), vehicle: DMSO).

Take `CC1CCC2CC(C3CCCC[N-]3)[N-]C(N)C2C1.CC1CCC2CC(C3CCCC[N-]3)[N-]C(N)C2C1.O=[N+]([O-])O.[Cu+]` (stereo not given): the T/C is, setting by setting: (dose: 12.5 mg/kg/injection, schedule: Q04DX002 (ip), vehicle: saline) 97 % of control; (dose: 12.5 mg/kg/injection, schedule: Q04DX002 (ip), vehicle: suspension in saline) 100 % of control; (dose: 25.0 mg/kg/injection, schedule: Q04DX002 (ip), vehicle: saline) 104 % of control; (dose: 25.0 mg/kg/injection, schedule: Q04DX002 (ip), vehicle: suspension in saline) 104 % of control and 118 % of control; (dose: 50.0 mg/kg/injection, schedule: Q04DX002 (ip), vehicle: suspension in saline) 111 % of control and 114 % of control; (dose: 100.0 mg/kg/injection, schedule: Q04DX002 (ip), vehicle: suspension in saline) 103 % of control and 105 % of control and 120 % of control.
